From US20220177462A1, “SUBSTITUTED HETEROCYCLIC AMIDE COMPOUND AND PREPARATION METHOD THEREFOR AND PHARMACEUTICAL USE THEREOF” (GENFLEET THERAPEUTICS (SHANGHAI) INC., priority 2019, published 2022) come the findings set out here.

Molecules are shown by their SMILES.

For orientation: IC50 means the concentration needed to halve the response being measured.

In the assay the test system is U937 cells. Description: Inhibitory activity against programmed necroptosis of U937 cells induced by TNF-α. Format: cell-based, human. Conditions: Homo sapiens, U-937, 48 h, 100 ng/ml human TNF-α and 25 μM Q-VD-Oph, 48 hours, CellTiter-Glo survival rate; read-out: U937 IC50. The method, then:
The U937 cell strain which was used in the following Testing Examples was derived from ATCC, No.: CRL-1593.2, batch No.: 63479999, culture medium: RPMI-1640+10% FBS.
The compound was dissolved in DMSO to prepare a 10 mM stock solution. The stock solution was diluted in 3.16 folds with DMSO to a series of gradient concentrations. Then, the resultant solution was diluted in 250 folds with a culture medium to prepare a working solution. The U937 cells were inoculated in a 384-well plate at 5000/well. The compound at respective concentration was added to each of the cells, and was mixed with the cells homogeneously. 100 ng/ml human TNF-α and 25 μM Q-VD-Oph were added simultaneously to induce programmed necroptosis of the cells. The final concentration of DMSO was 2%. The cells were placed in the incubator at 37° C. and 5% CO2 for further culture of 48 hours. Celltiter-Glo reagent was used for detection. After adequate pyrolysis reaction, the chemiluminescence readout value was recorded by a microplate reader. The survival rate was calculated from the detection results using the equation as follows: SR (%)=(RLU compound−RLU blank)/(RLU high control−RLU blank)×100%. The survival rate was plotted against the final concentration of respective compound using a 4-parameter fitting to calculate the inhibitory IC50 of the compound against programmed necroptosis of cells induced by TNF-a.
For `CC(NC(=O)c1cc(-c2ccc3nc(N)sc3c2)cnc1N)c1ccccc1OC(F)(F)F` (stereo not shown) [Compound Z46, 2-amino-5-(2-aminobenzo[d]thiazol-6-yl)-N-(1-(2-(trifluoromethoxy)phenyl)ethyl)nicotinamide], the IC50 was 76 nM.

As for `COc1ncc(-c2ccc3nc(N)sc3c2)cc1C(=O)NC(C)c1ccccc1OC(F)(F)F` (single isomer, unassigned) [Compound Z1, 5-(2-aminobenzothiazol-6-yl)-2-methoxy-N-(1-(2-(trifluoromethoxy)phenyl)ethyl)nicotinamide], the IC50 is 52 nM.

Consider `COc1ncc(-c2ccc3nc(N)sc3c2)cc1C(=O)NCc1ccccc1OC(C)C` [Compound Z50, 5-(2-aminobenzo[d]thiazol-6-yl)-N-(2-isopropoxybenzyl)-2-methoxynicotinamide], for which the half-inhibitory concentration (IC50) came out at 49 nM.

For the compound `COc1ncc(-c2ccc3nc(N)sc3c2)cc1C(=O)NCc1cc(F)ccc1OC1CCCC1` [Compound Z19, 5-(2-aminobenzo[d]thiazol-6-yl)-N-(2-(cyclopentyloxy)-5-fluorobenzyl)-2-methoxynicotinamide], the 50% inhibitory concentration (IC50) was found to be 7 nM.

Regarding `CC(NC(=O)c1cnc(Cl)c(-c2ccc3nc(N)sc3c2)c1)c1ccccc1OC(F)(F)F` (stereo not shown) [Compound Z8, 5-(2-aminobenzo[d]thiazol-6-yl)-6-chloro-N-(1-(2-(trifluoromethoxy)phenyl)ethyl)nicotinamide], the IC50 was found to be 88 nM.

As to `Cn1ncc2c(-c3ccn4nc(N)nc4c3)cc(C(=O)NCc3cc(F)ccc3OCC3CC3)cc21` [Compound Z59, 4-(2-amino-[1,2,4]triazolo[1,5-a]pyridin-7-yl)-N-(2-(cyclopropylmethoxy)-5-fluorobenzyl)-1-methyl-1H-indazole-6-carboxamide], the IC50 is 24 nM.

Regarding `COc1ncc(-c2ccc3nc(N)sc3c2)cc1C(=O)NCc1cccnc1OC1CCCC1` [Compound Z52, 5-(2-aminobenzo[d]thiazol-6-yl)-N-((2-(cyclopentyloxy)pyridin-3-yl)methyl)-2-methoxynicotinamide], the concentration for half-maximal inhibition (IC50) came out at 19 nM.

Take `COc1nc(C)c(-c2ccc3nc(N)sc3c2)cc1C(=O)NCc1cc(F)cc(F)c1OCC1CC1` [Compound Z38, 5-(2-aminobenzo[d]thiazol-6-yl)-N-(2-(cyclopropylmethoxy)-3,5-difluorobenzyl)-2-methoxy-6-methylnicotinamide]: the IC50 was found to be 14 nM.

Take `Cc1ncc(-c2ccc3nc(N)sc3c2)cc1C(=O)NCc1c(F)cccc1OCC1CCCC1` [Compound Z12, 5-(2-aminobenzo[d]thiazol-6-yl)-N-(2-(cyclopentylmethoxy)-6-fluorobenzyl)-2-methylnicotinamide]: the IC50 was found to be 10 nM.

`COc1nc(C)c(-c2ccc3nc(N)sc3c2)cc1C(=O)NCc1cccnc1OC1CCCC1` [Compound Z41, 5-(2-aminobenzo[d]thiazol-6-yl)-N-((2-(cyclopentyloxy)pyridin-3-yl)methyl)-2-methoxy-6-methylnicotinamide]: the half-maximal inhibitory concentration (IC50) was 14 nM.

Take `COc1ncc(-c2ccc3nc(N)sc3c2)cc1C(=O)NCc1ccccc1OCC1CC1` [Compound Z20, 5-(2-aminobenzo[d]thiazol-6-yl)-N-(2-(cyclopropylmethoxy)benzyl)-2-methoxynicotinamide]: the 50% inhibitory concentration (IC50) was 18 nM.

As for `Cn1ncc2c(-c3ccn4nc(N)nc4c3)cc(C(=O)NCc3cc(F)ccc3OC3CCOC3)cc21` (stereo not shown) [Compound Z62, 4-(2-amino-[1,2,4]triazolo[1,5-a]pyridin-7-yl)-N-(5-fluoro-2-((tetrahydrofuran-3-yl)oxy)benzyl)-1-methyl-1H-indazole-6-carboxamide], the IC50 was 30 nM.

As for `COc1ncc(-c2ccc3nc(N)sc3c2)cc1C(=O)Nc1cnn(C(C)c2ccc(F)cc2)c1` (stereo not shown) [Compound Z63, 5-(2-aminobenzo[d]thiazol-6-yl)-N-(1-(1-(4-fluorophenyl)ethyl)-1H-pyrazol-4-yl)-2-methoxynicotinamide], the half-inhibitory concentration (IC50) amounted to 7 nM.

Take `COc1ncc(-c2ccc3nc(N)sc3c2)cc1C(=O)NCc1cc(OC(F)(F)F)ccc1F` [Compound Z14, 5-(2-aminobenzo[d]thiazol-6-yl)-N-(2-fluoro-5-(trifluoromethoxy)benzyl)-2-methoxynicotinamide]: the concentration for half-maximal inhibition (IC50) turned out to be 6 nM.

With `COc1nc(C)c(-c2ccc3nc(N)sc3c2)cc1C(=O)NCc1ccccc1OC1CCOC1` (stereo not shown) [Compound Z40, 5-(2-aminobenzo[d]thiazol-6-yl)-2-methoxy-6-methyl-N-(2-((tetrahydrofuran-3-yl)oxy)benzyl)nicotinamide], the IC50 amounted to 68 nM.

Turning to `Cc1ncc(-c2ccc3nc(N)sc3c2)cc1C(=O)NC(C)c1cc(OC(F)(F)F)ccc1F` (stereo not shown) [Compound Z43, 5-(2-aminobenzo[d]thiazol-6-yl)-N-(1-(2-fluoro-5-(trifluoromethoxy)phenyl)ethyl)-2-methylnicotinamide], the IC50 came out at 3 nM.

For the compound `COc1ncc(C(=O)NCc2cc(F)ccc2OC2CCCC2)cc1-c1ccc2nc(N)sc2c1` [Compound Z13, 5-(2-aminobenzo[d]thiazol-6-yl)-N-(2-(cyclopentyloxy)-5-fluorobenzyl)-6-methoxynicotinamide], the IC50 was 17 nM.

For `COc1nc(C)c(-c2ccc3nc(N)sc3c2)cc1C(=O)NCc1ccccc1OC(C)C` [Compound Z42, 5-(2-aminobenzo[d]thiazol-6-yl)-N-(2-isopropoxybenzyl)-2-methoxy-6-methylnicotinamide], the IC50 came out at 43 nM.

Take `COc1ncc(-c2ccc3nc(N)sc3c2)cc1C(=O)NC(C)c1c(F)cccc1OC(F)(F)F` (stereo not shown) [Compound Z48, 5-(2-aminobenzo[d]thiazol-6-yl)-N-(1-(2-fluoro-6-(trifluoromethoxy)phenyl)ethyl)-2-methoxynicotinamide]: the half-maximal inhibitory concentration (IC50) is 88 nM.

Regarding `Nc1nc2ccc(-c3cncc(C(=O)NCc4ccccc4OCC4CC4)c3)cc2s1` [Compound Z22, 5-(2-aminobenzo[d]thiazol-6-yl)-N-(2-(cyclopropylmethoxy)benzyl)nicotinamide], the IC50 was 62 nM.

Regarding `CC(NC(=O)c1cc(-c2ccn3nc(N)nc3c2)cc2[nH]ccc12)c1ccccc1OC(F)(F)F` (stereo not shown) [Compound Z24, 6-(2-amino-[1,2,4]triazolo[1,5-a]pyridin-7-yl)-N-(1-(2-(trifluoromethoxy)phenyl)ethyl)-1H-indole-4-carboxamide], the half-maximal inhibitory concentration (IC50) was determined as 151 nM.

With `Cn1ncc2c(-c3ccn4nc(N)nc4c3)cc(C(=O)NCc3cc(F)ccc3OC3CCOCC3)cc21` [Compound Z61, 4-(2-amino-[1,2,4]triazolo[1,5-a]pyridin-7-yl)-N-(5-fluoro-2-((tetrahydro-2H-pyran-4-yl)oxy)benzyl)-1-methyl-1H-indazole-6-carboxamide], the IC50 amounted to 2 nM.

For the compound `COc1ncc(-c2ccc3nc(N)sc3c2)cc1C(=O)NCc1c(F)cccc1OC1CCCC1` [Compound Z18, 5-(2-aminobenzo[d]thiazol-6-yl)-N-(2-(cyclopentyloxy)-6-fluorobenzyl)-2-methoxynicotinamide], the half-maximal inhibitory concentration (IC50) came to 4 nM.

`COc1ncc(-c2ccc3nc(N)sc3c2)cc1C(=O)NCc1ccccc1OC1CCOC1` (stereo not shown) [Compound Z53, 5-(2-aminobenzo[d]thiazol-6-yl)-2-methoxy-N-(2-((tetrahydrofuran-3-yl)oxy)benzyl)nicotinamide]: the IC50 came to 42 nM.

Take `COc1nc(C)c(-c2ccc3nc(N)sc3c2)cc1C(=O)NC(C)c1ccccc1OC(F)(F)F` (stereo not shown) [Compound Z37, 5-(2-aminobenzo[d]thiazol-6-yl)-2-methoxy-6-methyl-N-(1-(2-(trifluoromethoxy)phenyl)ethyl)nicotinamide]: the IC50 worked out at 45 nM.
